From ChEMBL document CHEMBL2380308, “Voulkensin C-E, new 11-oxocassane-type diterpenoids and a steroid glycoside from Caesalpinia volkensii stem bark and their antiplasmodial activities” (Bioorg Med Chem Lett, 2013)

Assays:
Plasmodium falciparum [1] = assay: Antiplasmodial activity against Plasmodium falciparum D6; type: functional, organism-based
Plasmodium falciparum [2] = assay: Antiplasmodial activity against Plasmodium falciparum W2; type: functional, organism-based

SMILES	IC50 (Plasmodium falciparum [1])	IC50 (Plasmodium falciparum [2])
COC(=O)[C@]12CCC(C)(C)C[C@H]1C1=CC[C@@H]3[C@@]4(C)CC[C@H](OC(C)=O)C(C)(C)[C@@H]4CC[C@@]3(C)[C@]1(C)CC2	18.7 µM	24.4 µM
C=C1C(CCOC(=O)/C=C/c2ccc(O)c(O)c2)=CC(=O)[C@H]2[C@H]1CC[C@H]1C(C)(C)CCC[C@]21C	11.6 µM	16.5 µM
C=C1C(CCO)=CC(=O)[C@H]2[C@H]1CC[C@H]1C(C)(C)CCC[C@]21C	17.3 µM	22.8 µM
C[C@H]1C(CCO)=CC(=O)[C@H]2[C@H]1CC[C@H]1C(C)(C)CCC[C@]21C	18.7 µM	15.6 µM
CC[C@H](/C=C/[C@@H](C)[C@H]1CC[C@H]2[C@@H]3CC=C4C[C@@H](O[C@@H]5OC[C@@H](O)[C@H](O)[C@H]5O[C@@H]5O[C@H](CO)[C@@H](O)[C@H](O)[C@H]5O)CC[C@]4(C)[C@H]3CC[C@]12C)C(C)C	4.44 µM	2.74 µM
CC(=O)O[C@@]1(C)CCC[C@]2(C)[C@H]3Cc4occc4[C@H](C)[C@@H]3CC[C@@]12O	34.4 µM	30.7 µM
CC(=O)O[C@@]1(C)CCC[C@@]2(C)[C@H]1CC[C@H]1[C@@H](C)c3ccoc3C[C@@H]12	25.7 µM	30.3 µM
CC[C@H](CC[C@@H](C)[C@H]1CC[C@H]2[C@@H]3CC=C4C[C@@H](O)CC[C@]4(C)[C@H]3CC[C@]12C)C(C)C [BETA-SITOSTEROL]	> 50 µM	> 50 µM
CC1(C)CC[C@]2(C(=O)O)CC[C@]3(C)C(=CC[C@@H]4[C@@]5(C)CC[C@H](O)C(C)(C)[C@@H]5CC[C@]43C)[C@@H]2C1 [OLEANOLIC_ACID]	23.8 µM	26.2 µM
CC[C@H](/C=C/[C@@H](C)[C@H]1CC[C@H]2[C@@H]3CC=C4C[C@@H](O)CC[C@]4(C)[C@H]3CC[C@]12C)C(C)C [STIGMASTEROL]	> 50 µM	> 50 µM
C[C@H]1c2ccoc2C[C@H]2[C@H]1CC[C@@]1(O)C(C)(C)CCC[C@]21C [VOUCAPAN-5 ALPHA-OL]	> 50 µM	> 50 µM
